By inhibition is commonly meant the relative decrease from the control value, in per cent. Read a high inhibition as a response far below the control. Usually IC50 stands for the concentration that gives 50% inhibition. A word on the Ki: it is the dissociation constant of the complex between target and ligand, obtained from inhibition or displacement. The low end stands for tighter binding, the high end for weaker binding.

Molecules are shown by their SMILES. Calls of active or inactive are those of the source. No cut-off for these calls is given here.

Experimental findings from ChEMBL document CHEMBL1132029, “Specific, uncompetitive inhibition of beta-galactosidases by a 5,6-isopropylidenedioxyfuro[2,3-d]isoxazole-3-methanol derivative” (Bioorg Med Chem Lett, 1999) are described below.

The target of assay [1] is T1, Beta-galactosidase (Aspergillus niger) (UniProt P29853).
T1 sequence (whole entry): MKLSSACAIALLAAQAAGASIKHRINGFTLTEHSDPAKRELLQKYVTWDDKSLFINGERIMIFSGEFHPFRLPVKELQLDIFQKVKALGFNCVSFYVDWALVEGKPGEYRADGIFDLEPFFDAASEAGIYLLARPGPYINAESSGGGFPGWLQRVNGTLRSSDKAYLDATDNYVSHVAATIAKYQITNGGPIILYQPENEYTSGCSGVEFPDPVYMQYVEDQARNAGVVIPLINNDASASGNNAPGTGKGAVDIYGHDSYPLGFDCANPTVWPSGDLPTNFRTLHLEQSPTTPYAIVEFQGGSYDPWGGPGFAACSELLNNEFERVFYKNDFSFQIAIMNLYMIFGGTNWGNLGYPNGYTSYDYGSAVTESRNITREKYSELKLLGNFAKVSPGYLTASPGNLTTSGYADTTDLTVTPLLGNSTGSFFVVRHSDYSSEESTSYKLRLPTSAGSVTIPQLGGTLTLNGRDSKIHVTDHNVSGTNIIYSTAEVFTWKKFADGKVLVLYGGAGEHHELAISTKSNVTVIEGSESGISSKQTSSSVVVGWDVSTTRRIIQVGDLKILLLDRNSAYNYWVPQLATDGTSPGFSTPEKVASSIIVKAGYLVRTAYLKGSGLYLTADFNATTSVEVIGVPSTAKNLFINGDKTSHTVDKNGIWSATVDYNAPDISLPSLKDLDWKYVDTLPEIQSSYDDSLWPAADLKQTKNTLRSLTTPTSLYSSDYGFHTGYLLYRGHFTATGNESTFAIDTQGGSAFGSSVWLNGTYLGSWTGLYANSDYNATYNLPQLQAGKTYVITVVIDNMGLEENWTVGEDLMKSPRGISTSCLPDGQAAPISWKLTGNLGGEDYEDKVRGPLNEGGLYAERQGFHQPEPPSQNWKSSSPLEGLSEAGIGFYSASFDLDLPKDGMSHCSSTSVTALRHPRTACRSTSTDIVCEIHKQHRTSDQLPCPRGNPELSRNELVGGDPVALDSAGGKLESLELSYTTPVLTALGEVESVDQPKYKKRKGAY
The assay can be described thus: Inhibitory activity against beta-galactosidase from Aspergillus niger at a concentration of 1 mM; No activity.

The nature of assay [2]: Inhibitory activity against beta-galactosidase from jack beans at a concentration of 1 mM; No activity. To be noted: Canavalia ensiformis.
Assay [3] is described as follows: Inhibitory activity against beta-galactosidase from Aspergillus oryzae at a concentration of 1 mM; No activity.
The target of assay [4] is Beta-glucosidase A (Caldicellulosiruptor saccharolyticus) (UniProt P10482). The assay can be described thus: Inhibitory activity against beta-glucosidase from Caldocellum saccharolyticum at a concentration of 1 mM; No activity.
Target sequence in this assay (P10482 whole entry, looked up): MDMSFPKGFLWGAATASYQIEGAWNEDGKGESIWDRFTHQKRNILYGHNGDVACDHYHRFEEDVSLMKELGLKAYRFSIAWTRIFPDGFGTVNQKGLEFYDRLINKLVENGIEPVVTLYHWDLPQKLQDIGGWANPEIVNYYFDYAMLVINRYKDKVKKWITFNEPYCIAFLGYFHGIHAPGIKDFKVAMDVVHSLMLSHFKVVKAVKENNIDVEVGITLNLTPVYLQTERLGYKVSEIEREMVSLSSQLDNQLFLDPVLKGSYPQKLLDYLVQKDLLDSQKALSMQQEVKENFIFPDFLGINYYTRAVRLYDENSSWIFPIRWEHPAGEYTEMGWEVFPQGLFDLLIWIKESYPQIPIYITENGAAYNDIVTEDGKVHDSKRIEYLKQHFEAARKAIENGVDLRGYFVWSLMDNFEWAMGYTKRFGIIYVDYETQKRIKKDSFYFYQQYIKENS
Assay [5] has the same target. The assay is described as follows: Inhibitory activity against beta-glucosidase from Caldocellum saccharolyticum at a concentration of 1 mM; No activity.
Target sequence in this assay (P10482 whole entry): as the sequence (P10482 whole entry, looked up) above
A short description of assay [6]: Inhibitory activity against rice Alpha-galactosidase at concentration 1 mM.
Another assay has as its target Beta-glucosidase A (Caldicellulosiruptor saccharolyticus, UniProt P10482). The assay can be described thus: Inhibition of beta-glucosidase from Caldocellum saccharolyticum.
For a further assay, the target named is T2, Beta-galactosidase (Aspergillus niger, UniProt P29853).
T2 sequence (P29853 whole entry): T1 sequence (whole entry)
The assay can be described thus: Inhibition of beta-galactosidase from Aspergillus niger.

In assay [7] the target is Beta-glucosidase A (Caldicellulosiruptor saccharolyticus) (UniProt P10482). To be noted: 1 mM.
Target sequence in this assay (P10482 whole entry): as the sequence (P10482 whole entry, looked up) above
The target in assay [8] is T1, Beta-galactosidase (Aspergillus niger). As to conditions: 1 mM.
Assay [9] can be described thus: Inhibitory activity against beta-galactosidase from jack beans […]; No activity. As to conditions: Canavalia ensiformis.

Chain of Beta-glucosidase A (P10482 whole entry): as the sequence (P10482 whole entry, looked up) above

Take `CC1(C)O[C@H]2O[C@@H]3C(C4N[C@@H](c5ccccc5)[C@H](c5ccccc5)N4)=NO[C@@H]3[C@H]2O1`: the outcome in assay [1], in assay [2], in assay [3] and in [4] was inactive.
On to `OCC1=NO[C@H]2[C@H](O)C(O)O[C@@H]12` (stereo not given in full), for which the result in assay [5], in assay [1], in assay [2] and in assay [3] was inactive. The same molecule displayed an inhibition in assay [6] of 59%.
Take `CC1(C)O[C@@H]2O[C@H]3C(CO)=NO[C@H]3[C@@H]2O1`: the IC50 against Beta-glucosidase A is 550 µM; at Beta-galactosidase, 43 µM. The Ki on Beta-glucosidase A was 5 µM; on Beta-galactosidase it was 18 µM. Further, the inhibition in assay [7] was 67%; in assay [8] it was 14%.
Take `COCC1=NO[C@H]2[C@@H]3OC(C)(C)O[C@@H]3O[C@@H]12`: the result in [5], in assay [1], in [2] and in [3] was inactive.
`CC1(C)O[C@@H]2O[C@H]3C(C=O)=NO[C@H]3[C@@H]2O1`: the outcome in assay [1], in assay [2], in assay [3] and in assay [4] was inactive.
On to `COCOCC1=NO[C@H]2[C@@H]3OC(C)(C)O[C@@H]3O[C@@H]12`, for which the outcome in assay [5], in assay [1], in assay [2] and in [3] was inactive.
With `CC1(C)O[C@@H]2O[C@H]3C(C4N[C@@H](c5ccccc5)[C@H](c5ccccc5)N4)=NO[C@H]3[C@@H]2O1`, the outcome in assay [1], in assay [9], in [3] and in assay [4] was inactive.
With `CCOC(OCC)C1=NO[C@H]2[C@H](O)C(O)O[C@@H]12` (stereo not given in full), the result in assay [1], in assay [2], in assay [3] and in assay [4] was inactive.
